From paper PMC5986078 (Clinical cancer research : an official journal of the …, 2017) come the findings set out here.

The test system of series [1] is LN229, U251HF and A172 cells. In words: Colony forming assay. In kind it is cell-based, human. The conditions noted are these: 0.4 μM for 24 h, colonies after 10 days.
The test system of series [2] is LN229 cells. In words: WST-1 proliferation assay. The series is classed as cell-based. The conditions noted are these: Homo sapiens, LN-229, 72 h, read-out: IC50, proliferation (WST assay).
For series [3], the system named is GSC11 (PN). In words: WST-1 viability assay in glioma stem cells. In kind it is cell-based, human. As to conditions: GSC11, highest concentrations of onalespib.
The test system of series [4] is EGFR signaling pathway. Description: Immunoblot of EGFR-AKT-ERK-S6 signaling in glioma cell lines. The series is classed as cell-based, human.
Series [5] deals with HSP90. In words: HSP70 immunoblot as biomarker of HSP90 inhibition in glioma cell lines. The series is classed as cell-based, human. The conditions noted are these: LN229, U251HF, A172; 0.1, 0.2, 0.4 μM, 48 h. On the technique in general: Immunoblotting shows a protein as a band on a membrane.
Series [6] deals with EGFRvIII. Description: Immunoblot in U87 cells expressing mutant EGFRvIII. In kind it is cell-based, human. As to conditions: 0.1, 0.2, 0.4 μM.
The subject of series [7] is p-STAT3. In words: p-STAT3 immunoblot in MES and PN GSC lines. The series is classed as cell-based, human. The conditions noted are these: 48 h.
Series [8] in a line: Brain and plasma pharmacokinetics by LC-MS/MS after iv bolus. As to conditions: 30 mg/kg iv single dose. In kind it is in vivo, mouse.
The subject of series [9] is GSC23 (PN). In words: WST-1 viability assay in glioma stem cells. In kind it is cell-based, human. As to conditions: GSC23, highest concentrations of onalespib. A general note: Tetrazolium dyes change colour on reduction, which living cells bring about.
In series [10] the test system is HSP90. In words: HSP70 immunohistochemistry of brain tissue as marker of HSP90 inhibition in vivo. As to conditions: 30 mg/kg iv, 0-24 h, vs vehicle treated mice. Also noted: species or system mouse.
Series [11] deals with U251HF-GFP xenograft. Description: Orthotopic intracranial zebrafish glioma xenograft. The conditions noted are these: TMZ 10 μM, onalespib 0.5 μM in fish water, 5-10 dpt.
Series [12] has as its system U251HF cells. Description: WST-1 proliferation assay. In kind it is cell-based. The conditions noted are these: Homo sapiens, 72 h, read-out: IC50, proliferation (WST assay).
Series [13] relates to U251HF, LN229 and A172 cells. Description: Wound healing. The series is classed as cell-based, human. The conditions noted are these: 0.4 μM, 24 h, vs untreated controls.
Series [14] relates to CD133, Nestin, Olig2. Description: Stem cell marker expression in GSC11 and GSC23. The series is classed as cell-based, human.
Series [15] relates to GSC lines. Description: Transwell migration. In kind it is cell-based, human.
For series [16], the system named is GSC20 (MES). In words: WST-1 viability assay in glioma stem cells. The series is classed as cell-based, human. The conditions noted are these: GSC20, highest concentrations of onalespib.
For series [17], the system named is A172 cells. Description: WST-1 proliferation assay. The series is classed as cell-based. The conditions noted are these: Homo sapiens, A 172, 72 h, read-out: IC50, proliferation (WST assay).
In series [18] the test system is HSP90 / EGFR pathway in GSC11 and GSC23. In words: Immunoblot of HSP70 and EGFR pathway in GSC11 and GSC23 neurospheres. In kind it is cell-based, human. The conditions noted are these: GSC11 and GSC23, 48 h.
Series [19] deals with GSC811 xenograft. Description: Patient-derived GSC811 intracranial xenograft in mice. The series is classed as in vivo, mouse. The conditions noted are these: TMZ 4 mg/kg oral daily x5, onalespib 30 mg/kg iv day 16 and 19; vs vehicle. On the technique in general: A xenograft is tissue or cells of one species grown in another, often human tumour cells in immunodeficient mice.
In series [20] the test system is GSC2 (MES). In words: WST-1 viability assay in glioma stem cells. The series is classed as cell-based, human. The conditions noted are these: GSC2, highest concentrations of onalespib.
In series [21] the test system is endothelial cells exposed to conditioned medium of LN229, U251HF and A172 cells. The series is classed as cell-based. As to conditions: 0.4 μM for 24 h.
The subject of series [22] is LN229, U251HF and A172 cells. Description: Apoptosis: annexin V/PI flow cytometry and caspase-3/7 activation. The series is classed as cell-based, human.

As to `CC(C)c1cc(C(=O)N2Cc3ccc(CN4CCN(C)CC4)cc3C2)c(O)cc1O` [onalespib, (2,4-dihydroxy-5-isopropylphenyl)-[5-(4-methylpiperazin-1-ylmethyl)-1,3-dihydroisoindol-2-yl]methanone], the “colony formation (proliferative capacity)” value in series [1] is “significantly inhibited”. Besides, the IC50 in series [2], in [12] and in series [17] was at most 250 nM each time. Further, the loss of viability result is “over 90%” in series [3] and 50% in series [9]. Moreover, in series [4] (0.4 μM, up to 24 h), the “EGFR level, time course” value is given as “time-dependent decline”. Moreover, the “levels of EGFR, p-EGFR, phospho- and total AKT, ERK1/2 and S6” value in series [4] (U251HF, LN229, A172, 0.1-0.4 μM, 48 h) was “robust dose-dependent decrease”. For the same molecule, the “HSP70 levels (marker of HSP90 inhibition)” value in series [5] is reported as “increase in HSP70 levels in cells in a dose-dependent manner”. Besides, in series [6], the “depletion of mutant EGFRvIII and downstream intermediates” value was “equally effective”. Also, the p-STAT3 result in series [7] is reported as “inhibited”. Further, in [8], the “brain Cmax relative to plasma Cmax (fold lower)” value is reported as 4.7 fold. The “overall brain exposure versus plasma” value in series [8] is on record as “greater than of plasma”. In addition, the “onalespib level in brain tissue versus plasma” value in [8] (each time point from 2 h up to 24 h) was “higher in brain tissue compared to the plasma”. Moreover, the “percentage and intensity of HSP70 pixels in brain tissue” value in series [10] is “increase”. The survival entry is recorded as “extended survival” in series [11] and “did not extend survival” in series [19]. Besides, in series [11], the tumor burden entry is on record as “moderate reductions”. Further, the “cell migration, wound healing” value in series [13] was “reduced ability to migrate”. Moreover, the “expression of stem cell markers CD133 and Nestin” value in [14] is given as “dose-dependent decrease”. Also, the “invasive ability, transwell migration” value in series [15] is given as “markedly decreased”. Also, the “viability (lost to)” value in series [16] and in series [20] was 50% in each case. Further, the “HSP70 levels in GSC” value in series [18] is on record as “characteristic increase”. In addition, the “levels of total EGFR, pEGFR in GSC” value in series [18] was “steep declines”. In series [21], the “number of microtubules formed by endothelial cells in response to CM” value is reported as “strongly inhibited”. Also, in [22] (increasing concentrations of onalespib), the “activation of caspase-3 and caspase-7” value was “dose-dependent activation”. Moreover, the “percentage of annexin positive cells” value in series [22] (increasing concentrations, 48 h) is recorded as “increase”.
In the case of `Cn1nnc2c(C(N)=O)ncn2c1=O` [TMZ, temozolomide], in series [11], the tumor burden result is recorded as “moderate reductions”. For the same molecule, the survival result in series [19] is listed as “did not extend survival”.
